In the kinase profiling compilation of Christmann-Franck et al. (2016):

How the values were obtained:
Assay in all cases: KINOMEscan competition binding
Settings in all cases: compound 10.0 µM
[1] = target: AKT3 (human) (UniProt Q9Y243)
[2] = target: ANKK1 (human) (UniProt Q8NFD2)
[3] = target: CAMK2A (human) (UniProt Q9UQM7)
[4] = target: CDK13 (human) (UniProt Q14004)
[5] = target: CDK14 (human) (UniProt O94921)
[6] = target: CDK2 (human) (UniProt P24941)
[7] = target: CDK7 (human) (UniProt P50613)
[8] = target: CDKL1 (human) (UniProt Q00532)
Sequence of CDKL1 (human) (Q00532 whole entry, looked up): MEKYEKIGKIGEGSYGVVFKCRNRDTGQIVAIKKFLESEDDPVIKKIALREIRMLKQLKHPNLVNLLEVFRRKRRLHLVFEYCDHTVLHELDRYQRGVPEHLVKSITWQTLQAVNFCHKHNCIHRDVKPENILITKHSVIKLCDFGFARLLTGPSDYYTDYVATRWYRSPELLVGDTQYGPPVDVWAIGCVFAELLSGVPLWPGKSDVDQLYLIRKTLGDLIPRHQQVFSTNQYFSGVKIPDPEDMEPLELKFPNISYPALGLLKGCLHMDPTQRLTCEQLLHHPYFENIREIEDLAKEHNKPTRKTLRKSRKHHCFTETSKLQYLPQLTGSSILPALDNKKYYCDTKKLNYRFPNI

[9] = target: CLK3 (human) (UniProt P49761)
Sequence of CLK3 (human) (P49761 whole entry, looked up): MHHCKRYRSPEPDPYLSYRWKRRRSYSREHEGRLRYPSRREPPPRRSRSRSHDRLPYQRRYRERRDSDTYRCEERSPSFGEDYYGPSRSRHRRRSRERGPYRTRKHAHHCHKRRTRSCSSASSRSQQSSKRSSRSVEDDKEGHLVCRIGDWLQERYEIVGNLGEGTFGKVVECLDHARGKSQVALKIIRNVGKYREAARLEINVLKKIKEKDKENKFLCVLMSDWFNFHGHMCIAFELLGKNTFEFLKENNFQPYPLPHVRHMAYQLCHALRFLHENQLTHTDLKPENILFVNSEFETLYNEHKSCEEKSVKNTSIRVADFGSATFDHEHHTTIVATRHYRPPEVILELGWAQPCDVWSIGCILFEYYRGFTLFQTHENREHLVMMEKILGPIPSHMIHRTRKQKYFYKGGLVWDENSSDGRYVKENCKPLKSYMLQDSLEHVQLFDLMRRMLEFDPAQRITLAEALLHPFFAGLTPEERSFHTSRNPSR

[10] = target: DAPK1 (human) (UniProt P53355)
[11] = target: DAPK2 (human) (UniProt Q9UIK4)
[12] = target: EIF2AK1 (human) (UniProt Q9BQI3)
Sequence of EIF2AK1 (human) (Q9BQI3 whole entry, looked up): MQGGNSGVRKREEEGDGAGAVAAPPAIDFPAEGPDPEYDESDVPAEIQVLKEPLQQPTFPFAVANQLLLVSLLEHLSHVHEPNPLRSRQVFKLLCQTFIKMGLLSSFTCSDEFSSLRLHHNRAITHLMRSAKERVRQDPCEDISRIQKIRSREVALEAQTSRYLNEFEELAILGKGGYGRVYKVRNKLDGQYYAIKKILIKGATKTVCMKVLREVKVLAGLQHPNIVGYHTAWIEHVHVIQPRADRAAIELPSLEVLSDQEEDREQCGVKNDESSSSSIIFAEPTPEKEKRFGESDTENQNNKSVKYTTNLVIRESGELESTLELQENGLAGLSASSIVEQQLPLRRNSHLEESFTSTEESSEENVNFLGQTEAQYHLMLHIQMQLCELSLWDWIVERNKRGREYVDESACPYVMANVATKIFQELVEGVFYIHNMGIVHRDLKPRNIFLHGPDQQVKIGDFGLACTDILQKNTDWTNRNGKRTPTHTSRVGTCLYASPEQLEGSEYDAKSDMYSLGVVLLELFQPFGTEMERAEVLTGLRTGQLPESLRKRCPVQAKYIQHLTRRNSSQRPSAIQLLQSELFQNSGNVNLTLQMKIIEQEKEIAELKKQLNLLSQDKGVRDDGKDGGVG

[13] = target: EPHA6 (human) (UniProt Q9UF33)
[14] = target: HIPK2 (human) (UniProt Q9H2X6)
[15] = target: ICK (human) (UniProt Q9UPZ9)
Sequence of ICK (human) (Q9UPZ9 whole entry, looked up): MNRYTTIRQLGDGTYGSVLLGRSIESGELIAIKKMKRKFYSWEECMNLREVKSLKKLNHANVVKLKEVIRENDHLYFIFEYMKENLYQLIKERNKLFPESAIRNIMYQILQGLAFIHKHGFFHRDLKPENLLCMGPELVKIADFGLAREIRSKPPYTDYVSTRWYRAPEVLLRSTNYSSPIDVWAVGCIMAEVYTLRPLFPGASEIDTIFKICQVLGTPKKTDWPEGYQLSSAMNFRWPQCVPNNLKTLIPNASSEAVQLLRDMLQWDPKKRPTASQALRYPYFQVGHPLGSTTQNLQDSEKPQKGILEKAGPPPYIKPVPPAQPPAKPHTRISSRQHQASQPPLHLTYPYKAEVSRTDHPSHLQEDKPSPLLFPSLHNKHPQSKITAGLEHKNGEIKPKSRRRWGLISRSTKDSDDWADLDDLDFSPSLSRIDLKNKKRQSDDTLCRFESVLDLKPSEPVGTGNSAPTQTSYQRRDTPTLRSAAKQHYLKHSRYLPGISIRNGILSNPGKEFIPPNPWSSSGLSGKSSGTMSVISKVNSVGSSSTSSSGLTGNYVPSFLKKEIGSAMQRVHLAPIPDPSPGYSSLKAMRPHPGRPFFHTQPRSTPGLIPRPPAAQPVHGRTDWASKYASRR

[16] = target: IGF1R (human) (UniProt P08069)
[17] = target: IRAK1 (human) (UniProt P51617)
[18] = target: LATS2 (human) (UniProt Q9NRM7)
Sequence of LATS2 (human) (Q9NRM7 whole entry, looked up): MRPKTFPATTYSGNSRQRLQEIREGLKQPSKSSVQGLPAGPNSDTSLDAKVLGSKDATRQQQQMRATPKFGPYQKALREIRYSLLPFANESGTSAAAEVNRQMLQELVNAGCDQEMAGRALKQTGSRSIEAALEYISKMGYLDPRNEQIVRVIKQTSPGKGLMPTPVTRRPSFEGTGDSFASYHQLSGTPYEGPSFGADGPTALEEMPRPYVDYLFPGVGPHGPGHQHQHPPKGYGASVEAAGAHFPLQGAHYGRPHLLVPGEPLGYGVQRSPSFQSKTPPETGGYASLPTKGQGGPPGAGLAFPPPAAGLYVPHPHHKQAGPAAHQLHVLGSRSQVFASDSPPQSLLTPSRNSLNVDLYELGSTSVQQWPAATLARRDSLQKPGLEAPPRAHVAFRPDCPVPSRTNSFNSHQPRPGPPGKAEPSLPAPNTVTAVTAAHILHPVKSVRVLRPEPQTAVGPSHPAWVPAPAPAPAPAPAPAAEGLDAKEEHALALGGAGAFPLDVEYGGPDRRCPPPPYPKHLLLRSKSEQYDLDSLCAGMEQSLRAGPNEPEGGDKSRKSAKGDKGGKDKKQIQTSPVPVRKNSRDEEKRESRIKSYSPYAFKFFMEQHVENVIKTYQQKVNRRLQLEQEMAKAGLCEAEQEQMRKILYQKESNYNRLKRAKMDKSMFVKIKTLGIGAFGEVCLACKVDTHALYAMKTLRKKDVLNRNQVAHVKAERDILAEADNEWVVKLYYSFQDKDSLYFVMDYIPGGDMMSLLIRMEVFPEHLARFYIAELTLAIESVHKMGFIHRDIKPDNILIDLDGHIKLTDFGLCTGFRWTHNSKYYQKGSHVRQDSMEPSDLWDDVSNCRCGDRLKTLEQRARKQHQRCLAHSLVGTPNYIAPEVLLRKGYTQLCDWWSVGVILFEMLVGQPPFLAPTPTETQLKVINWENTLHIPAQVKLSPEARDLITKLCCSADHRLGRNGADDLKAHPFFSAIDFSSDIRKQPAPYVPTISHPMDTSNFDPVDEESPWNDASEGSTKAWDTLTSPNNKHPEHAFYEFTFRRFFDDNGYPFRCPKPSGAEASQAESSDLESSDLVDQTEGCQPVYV

[19] = target: LRRK2 (human) (UniProt Q5S007)
[20] = target: MAP2K6 (human) (UniProt P52564)
[21] = target: MAP3K5 (human) (UniProt Q99683)
[22] = target: MAP4K1 (human) (UniProt Q92918)
[23] = target: MAPK12 (human) (UniProt P53778)
[24] = target: MAPK15 (human) (UniProt Q8TD08)
[25] = target: NTRK2 (human) (UniProt Q16620)
[26] = target: NUAK2 (human) (UniProt Q9H093)
[27] = target: PDPK1 (human) (UniProt O15530)
[28] = target: PIK3C2G (human) (UniProt O75747)
[29] = target: PRKD2 (human) (UniProt Q9BZL6)
Sequence of PRKD2 (human) (Q9BZL6 whole entry, looked up): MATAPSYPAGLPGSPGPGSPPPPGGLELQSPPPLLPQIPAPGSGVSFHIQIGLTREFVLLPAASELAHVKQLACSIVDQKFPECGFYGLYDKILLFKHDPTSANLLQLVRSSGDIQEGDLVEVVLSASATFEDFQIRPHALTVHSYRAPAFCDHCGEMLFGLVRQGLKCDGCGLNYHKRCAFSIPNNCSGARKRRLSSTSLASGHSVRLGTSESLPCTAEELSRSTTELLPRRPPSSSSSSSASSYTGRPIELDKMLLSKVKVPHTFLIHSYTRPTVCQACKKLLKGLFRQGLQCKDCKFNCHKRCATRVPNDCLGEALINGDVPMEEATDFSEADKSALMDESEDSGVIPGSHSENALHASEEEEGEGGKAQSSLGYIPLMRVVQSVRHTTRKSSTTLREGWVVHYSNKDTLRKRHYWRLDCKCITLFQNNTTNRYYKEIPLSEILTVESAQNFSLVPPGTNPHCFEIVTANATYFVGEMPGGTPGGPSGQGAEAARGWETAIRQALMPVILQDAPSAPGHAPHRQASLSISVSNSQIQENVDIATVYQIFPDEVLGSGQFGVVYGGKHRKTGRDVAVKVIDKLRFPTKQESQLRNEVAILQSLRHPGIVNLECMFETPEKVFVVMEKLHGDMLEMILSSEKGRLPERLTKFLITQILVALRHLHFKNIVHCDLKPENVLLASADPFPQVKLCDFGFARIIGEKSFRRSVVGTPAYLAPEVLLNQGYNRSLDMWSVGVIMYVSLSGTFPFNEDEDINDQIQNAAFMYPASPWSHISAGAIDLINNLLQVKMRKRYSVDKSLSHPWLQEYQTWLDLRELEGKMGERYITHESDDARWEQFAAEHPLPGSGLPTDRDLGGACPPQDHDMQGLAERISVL

[30] = target: PRKG1 (human) (UniProt Q13976)
[31] = target: RIPK4 (human) (UniProt P57078)
[32] = target: RPS6KA1 KD2 (human) (UniProt Q15418)
Sequence of RPS6KA1 KD2 (human) (Q15418 whole entry, looked up): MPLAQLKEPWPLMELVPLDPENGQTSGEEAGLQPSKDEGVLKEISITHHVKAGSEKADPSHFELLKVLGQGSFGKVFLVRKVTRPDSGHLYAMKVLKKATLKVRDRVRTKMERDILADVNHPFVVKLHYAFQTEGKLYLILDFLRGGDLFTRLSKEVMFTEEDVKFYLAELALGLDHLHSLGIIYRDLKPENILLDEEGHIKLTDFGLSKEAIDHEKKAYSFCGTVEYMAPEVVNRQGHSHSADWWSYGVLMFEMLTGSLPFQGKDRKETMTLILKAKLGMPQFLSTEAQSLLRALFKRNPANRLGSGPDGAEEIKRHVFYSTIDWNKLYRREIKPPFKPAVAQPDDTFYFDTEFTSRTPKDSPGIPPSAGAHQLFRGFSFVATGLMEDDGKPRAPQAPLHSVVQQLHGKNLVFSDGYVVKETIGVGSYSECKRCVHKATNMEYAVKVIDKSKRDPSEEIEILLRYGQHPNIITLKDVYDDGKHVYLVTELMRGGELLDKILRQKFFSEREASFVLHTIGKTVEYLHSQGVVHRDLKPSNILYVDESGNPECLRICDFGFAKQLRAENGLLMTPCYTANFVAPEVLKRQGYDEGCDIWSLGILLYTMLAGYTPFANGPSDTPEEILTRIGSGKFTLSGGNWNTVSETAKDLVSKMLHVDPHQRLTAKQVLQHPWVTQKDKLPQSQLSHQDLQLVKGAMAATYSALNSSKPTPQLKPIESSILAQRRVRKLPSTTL

[33] = target: RPS6KA4 KD1 (human) (UniProt O75676)
[34] = target: RPS6KB1 (human) (UniProt P23443)
[35] = target: STK17B (human) (UniProt O94768)
[36] = target: STK35 (human) (UniProt Q8TDR2)
[37] = target: TGFBR1 (human) (UniProt P36897)
[38] = target: TGFBR2 (human) (UniProt P37173)
[39] = target: TNK2 (human) (UniProt Q07912)
[40] = target: TYK2 JH2 pseudokinase (human) (UniProt P29597)

Compound | kinase still bound, per cent of control [1] | kinase still bound, per cent of control [2] | kinase still bound, per cent of control [3] | kinase still bound, per cent of control [4] | kinase still bound, per cent of control [5] | kinase still bound, per cent of control [6] | kinase still bound, per cent of control [7] | kinase still bound, per cent of control [8] | kinase still bound, per cent of control [9] | kinase still bound, per cent of control [10] | kinase still bound, per cent of control [11] | kinase still bound, per cent of control [12] | kinase still bound, per cent of control [13] | kinase still bound, per cent of control [14] | kinase still bound, per cent of control [15] | kinase still bound, per cent of control [16] | kinase still bound, per cent of control [17] | kinase still bound, per cent of control [18] | kinase still bound, per cent of control [19] | kinase still bound, per cent of control [20] | also measured
COc1cc(N2CCN(C)CC2)ccc1Nc1nc(N)c(C(=O)c2c(Cl)cccc2Cl)s1 | 100% | 96% | 20% | 83% | 91% | 79% | 2.8% | 88% | 2% | 85% | 86% | 100% | 99% | 66% | 7.4% | 72% | 92% | 100% | 81% | 85% | kinase still bound, per cent of control [21]: 100%; kinase still bound, per cent of control [22]: 90%; kinase still bound, per cent of control [23]: 100%; kinase still bound, per cent of control [24]: 84%; kinase still bound, per cent of control [25]: 80%; kinase still bound, per cent of control [26]: 60%; kinase still bound, per cent of control [27]: 100%; kinase still bound, per cent of control [28]: 100%; kinase still bound, per cent of control [29]: 78%; kinase still bound, per cent of control [30]: 100%; kinase still bound, per cent of control [31]: 96%; kinase still bound, per cent of control [32]: 58%; kinase still bound, per cent of control [33]: 100%; kinase still bound, per cent of control [34]: 89%; kinase still bound, per cent of control [35]: 73%; kinase still bound, per cent of control [36]: 100%; kinase still bound, per cent of control [37]: 100%; kinase still bound, per cent of control [38]: 92%; kinase still bound, per cent of control [39]: 97%; kinase still bound, per cent of control [40]: 60%
O=C(NC1CC1)c1cccc(-c2ccc3c(NC(=O)C4CC4)n[nH]c3c2)c1 | 100% | 8% | 88% | 82% | 46% | 3.4% | 18% | 58% | 80% | 91% | 87% | 100% | 100% | 36% | 13% | 100% | 82% | 85% | 100% | 55% | kinase still bound, per cent of control [21]: 100%; kinase still bound, per cent of control [22]: 68%; kinase still bound, per cent of control [23]: 24%; kinase still bound, per cent of control [24]: 2.9%; kinase still bound, per cent of control [25]: 61%; kinase still bound, per cent of control [26]: 24%; kinase still bound, per cent of control [27]: 81%; kinase still bound, per cent of control [28]: 100%; kinase still bound, per cent of control [29]: 100%; kinase still bound, per cent of control [30]: 100%; kinase still bound, per cent of control [31]: 84%; kinase still bound, per cent of control [32]: 68%; kinase still bound, per cent of control [33]: 100%; kinase still bound, per cent of control [34]: 100%; kinase still bound, per cent of control [35]: 100%; kinase still bound, per cent of control [36]: 16%; kinase still bound, per cent of control [37]: 77%; kinase still bound, per cent of control [38]: 100%; kinase still bound, per cent of control [39]: 100%; kinase still bound, per cent of control [40]: 32%
CN(C)C/C=C/C(=O)Nc1cccc(Nc2ncc3c(n2)N(C)c2ccccc2C(=O)N3C)c1 | 100% | 6% | 32% | 96% | 100% | 94% | 9.6% | 83% | 82% | 52% | 69% | 100% | 91% | 89% | 70% | 100% | 19% | 97% | 31% | 95% | kinase still bound, per cent of control [21]: 100%; kinase still bound, per cent of control [22]: 38%; kinase still bound, per cent of control [23]: 83%; kinase still bound, per cent of control [24]: 100%; kinase still bound, per cent of control [25]: 4%; kinase still bound, per cent of control [26]: 2.6%; kinase still bound, per cent of control [27]: 86%; kinase still bound, per cent of control [28]: 76%; kinase still bound, per cent of control [29]: 36%; kinase still bound, per cent of control [30]: 100%; kinase still bound, per cent of control [31]: 1%; kinase still bound, per cent of control [32]: 39%; kinase still bound, per cent of control [33]: 59%; kinase still bound, per cent of control [34]: 63%; kinase still bound, per cent of control [35]: 100%; kinase still bound, per cent of control [36]: 89%; kinase still bound, per cent of control [37]: 25%; kinase still bound, per cent of control [38]: 55%; kinase still bound, per cent of control [39]: 4.4%; kinase still bound, per cent of control [40]: 18%
